Data from the supplement of paper PMC11451515.

Test system: SEM cells
Experiment: cell viability relative to DMSO control; higher = less cytotoxic
Conditions: 48 h
Outline: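 Viability is expressed as a percentage of DMSO wells within each plate, and cell-free wells serve as background. Seeding densities in the 1536-well plates (5 μl) were 500 cells/well for NOMO1 or SEM leukemia cells and 1000 cells/well for P12-Ichikawa. Each line was adapted for at least four passages in each medium. Library compounds in DMSO were pin-dosed at 47 μM to 0.79 nM (11 points, threefold), and CellTiter-Glo One luminescence was read after 48 h at 37°C.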

[1] = HPLM + 10% dialyzed FBS, 0.000781 µM
[2] = HPLM + 10% dialyzed FBS, 0.00234 µM
[3] = HPLM + 10% dialyzed FBS, 0.00702 µM
[4] = HPLM + 10% dialyzed FBS, 0.0211 µM
[5] = HPLM + 10% dialyzed FBS, 0.0632 µM
[6] = HPLM + 10% dialyzed FBS, 0.19 µM
[7] = HPLM + 10% dialyzed FBS, 0.569 µM
[8] = HPLM + 10% dialyzed FBS, 1.71 µM
[9] = HPLM + 10% dialyzed FBS, 5.12 µM
[10] = HPLM + 10% dialyzed FBS, 15.4 µM
[11] = HPLM + 10% dialyzed FBS, 46.1 µM
[12] = RPMI 5 mM glucose + 10% FBS, 0.000781 µM
[13] = RPMI 5 mM glucose + 10% FBS, 0.00234 µM
[14] = RPMI 5 mM glucose + 10% FBS, 0.00702 µM
[15] = RPMI 5 mM glucose + 10% FBS, 0.0211 µM
[16] = RPMI 5 mM glucose + 10% FBS, 0.0632 µM
[17] = RPMI 5 mM glucose + 10% FBS, 0.19 µM
[18] = RPMI 5 mM glucose + 10% FBS, 0.569 µM
[19] = RPMI 5 mM glucose + 10% FBS, 1.71 µM
[20] = RPMI 5 mM glucose + 10% FBS, 5.12 µM
[21] = RPMI 5 mM glucose + 10% FBS, 15.4 µM
[22] = RPMI 5 mM glucose + 10% FBS, 46.1 µM
[23] = RPMI 5 mM glucose + 10% dialyzed FBS, 0.000781 µM
[24] = RPMI 5 mM glucose + 10% dialyzed FBS, 0.00234 µM
[25] = RPMI 5 mM glucose + 10% dialyzed FBS, 0.00702 µM
[26] = RPMI 5 mM glucose + 10% dialyzed FBS, 0.0211 µM
[27] = RPMI 5 mM glucose + 10% dialyzed FBS, 0.0632 µM
[28] = RPMI 5 mM glucose + 10% dialyzed FBS, 0.19 µM
[29] = RPMI 5 mM glucose + 10% dialyzed FBS, 0.569 µM
[30] = RPMI 5 mM glucose + 10% dialyzed FBS, 1.71 µM
[31] = RPMI 5 mM glucose + 10% dialyzed FBS, 5.12 µM
[32] = RPMI 5 mM glucose + 10% dialyzed FBS, 15.4 µM
[33] = RPMI 5 mM glucose + 10% dialyzed FBS, 46.1 µM

N=C(NCCCCCCNC(=N)NC(=N)Nc1ccc(Cl)cc1)NC(=N)Nc1ccc(Cl)cc1
cell viability [1]: 95.6%
cell viability [2]: 104%
cell viability [3]: 95.6%
cell viability [4]: 95.2%
cell viability [5]: 101%
cell viability [6]: 104%
cell viability [7]: 104%
cell viability [8]: 93.9%
cell viability [9]: 92.2%
cell viability [10]: 86.8%
cell viability [11]: 52%
cell viability [12]: 98.4%
cell viability [13]: 102%
cell viability [14]: 104%
cell viability [15]: 97.5%
cell viability [16]: 93.4%
cell viability [17]: 107%
cell viability [18]: 96.4%
cell viability [19]: 104%
cell viability [20]: 107%
cell viability [21]: 97.6%
cell viability [22]: 68%
cell viability [23]: 83.6%
cell viability [24]: 92.9%
cell viability [25]: 93.4%
cell viability [26]: 87.9%
cell viability [27]: 89.3%
cell viability [28]: 96.7%
cell viability [29]: 90.9%
cell viability [30]: 85.8%
cell viability [31]: 103%
cell viability [32]: 80.9%
cell viability [33]: 42.1%

OC[C@H]1OCC(O1)[N@@]2C=CC(N)=NC2=O (stereo partly specified)
cell viability [1]: 108%
cell viability [2]: 81.3%
cell viability [3]: 90.7%
cell viability [4]: 106%
cell viability [5]: 115%
cell viability [6]: 103%
cell viability [7]: 107%
cell viability [8]: 99.3%
cell viability [9]: 96.3%
cell viability [10]: 102%
cell viability [11]: 96.6%
cell viability [12]: 73.1%
cell viability [13]: 62.4%
cell viability [14]: 77.8%
cell viability [15]: 77.5%
cell viability [16]: 78%
cell viability [17]: 84.2%
cell viability [18]: 80%
cell viability [19]: 64.4%
cell viability [20]: 70.7%
cell viability [21]: 63.8%
cell viability [22]: 56.3%
cell viability [23]: 96.7%
cell viability [24]: 95.8%
cell viability [25]: 96.3%
cell viability [26]: 106%
cell viability [27]: 113%
cell viability [28]: 110%
cell viability [29]: 114%
cell viability [30]: 103%
cell viability [31]: 106%
cell viability [32]: 101%
cell viability [33]: 88.8%
